What was measured:
Nilgai, deer = experiment: Observed repellence of vermin mammal species; assay type: in vivo; settings: because of its bitterness
[1] = in vivo; cited from earlier work
average person = settings: cited from earlier work

In the case of `CC[N+](CC)(CC(=O)Nc1c(C)cccc1C)Cc1ccccc1.O=C([O-])c1ccccc1` [Denatonium benzoate, phenylmethyl-[2-[(2,6-dimethylphenyl)amino]-2-oxoethyl]-diethylammonium benzoate], the “repellence of vermin mammals” value (Nilgai, deer) is given as “effectively repelled”, the “human safety in clinical trials” value [1] is given as “extremely human safe” and the “generally recognized bitter taste” value (average person; level of recognised bitter taste) is given as 50 ppb. The “can be detected by the average person” value (average person; taste detection level) was 10 ppb.

From US20220142159A1, “A METHOD AND COMPOSITION FOR INSECT REPELLENCY USING AVERSIVE AGENT” (UPL LTD, priority 2019, published 2022)
